Results from ChEMBL document CHEMBL1158156, “Structure-based design, synthesis, and biological evaluation of 1,1-dioxoisothiazole and benzo[b]thiophene-1,1-dioxide derivatives as novel inhibitors of hepatitis C virus NS5B polymerase” (Bioorg Med Chem Lett, 2008).

Key:
[1] = Cytotoxicity against human Huh7/C24 cells after 72 hrs; assay type: cell-based, Huh-7
[2] = system: Hepatitis C virus; assay: Antiviral activity against HCV 1b infected in human Huh7/C24 cells after 72 hrs by replicon assay; assay type: functional, organism-based, Hepacivirus hominis; settings: genotype 1b, Huh-7, 72 h
[3] = system: Hepatitis C virus; assay: Inhibition of HCV 1b NS5B polymerase; set-up: species or system Hepatitis C virus subtype 1b
[4] = Metabolic stability in human liver microsomes assessed as half life
[5] = Apparent permeability from apical to basolateral side in human Caco-2 cells; assay type: ADME, cell-based
[6] = Plasma concentration in cynomolgus monkey at 1 mg/kg, po administered as single dose after 12 hrs; assay type: ADME, organism-based, Macaca fascicularis; set-up: dose 1 mg/kg, route oral
[7] = AUC at 24 hrs in cynomolgus monkey at 1 mg/kg, po administered as single dose; assay type: ADME, organism-based, Macaca fascicularis; set-up: time < 24 hr, dose 1 mg/kg, route oral; settings: plasma
[8] = Oral bioavailability in cynomolgus monkey at 1 mg/kg administered as single dose; assay type: ADME, organism-based, Macaca fascicularis; settings: in vivo
[9] = Apparent permeability from basolateral to apical side in human Caco-2 cells; assay type: ADME, cell-based
[10] = Ratio of permeability from basolateral to apical over apical to basolateral side in human Caco-2 cells
[11] = Apparent permeability across human Caco-2 cells

SMILES | CC50 at 72 h [1] | EC50 [2] | IC50 [3] | half-life ([4]; liver microsomes) | other results
CC(C)(C)CCN1C(=O)C(C2=NS(=O)(=O)c3c(CCS(C)(=O)=O)cccc32)=C(O)[C@@H]1C(C)(C)C | > 33 µM | 2.6 µM | 0.045 µM | > 1 h | –
CC(C)[C@H]1C(O)=C(C2=NS(=O)(=O)c3c(OCc4ncon4)cccc32)C(=O)N1Cc1ccccc1 | > 33 µM | 15 µM | 0.35 µM | > 1 h | –
CC(C)[C@H]1C(O)=C(C2=NS(=O)(=O)c3ccccc32)C(=O)N1Cc1ccccc1 | > 33 µM | 24 µM | – | > 1 h | –
CCOc1cccc2c1S(=O)(=O)N=C2C1=C(O)[C@H](C(C)(C)C)N(Cc2ccc(F)c(Cl)c2)C1=O | > 33 µM | – | 0.76 µM | – | half-life ([4]; microsomes): > 1 h
CCOc1cccc2c1S(=O)(=O)N=C2C1=C(O)[C@H](C(C)C)N(CCC(C)(C)C)C1=O | > 33 µM | – | 9 µM | – | –
CC(C)(C)CCN1C(=O)C(C2=NS(=O)(=O)c3c(OCC(N)=O)cccc32)=C(O)[C@@H]1C(C)(C)C | > 33 µM | 11 µM | 0.2 µM | 0.8 h | –
CC(C)[C@H]1C(O)=C(C2=NS(=O)(=O)c3c(OCC(=O)N4CCOCC4)cccc32)C(=O)N1Cc1ccccc1 | > 33 µM | > 33 µM | 3.2 µM | > 1 h | –
CN(Cc1cccc2c1S(=O)(=O)N=C2C1=C(O)[C@H](C(C)(C)C)N(Cc2ccc(F)c(Cl)c2)C1=O)S(C)(=O)=O | > 33 µM | 0.09 µM | 0.023 µM | > 1 h | Papp A→B [5]: 0.2 ×10⁻⁶ cm/s; concentration at 12 h [6]: 3.1 ng/mL; AUC at 24 h [7]: 193 ng·h/mL; bioavailability [8]: 4%; Papp B→A [9]: 29 ×10⁻⁶ cm/s; efflux ratio [10]: 132
CC(C)(C)CCN1C(=O)C(C2=NS(=O)(=O)c3c(OCc4ncon4)cccc32)=C(O)[C@@H]1C(C)(C)C | > 33 µM | 2 µM | 0.65 µM | 0.733 h | –
CCOc1cccc2c1S(=O)(=O)N=C2C1=C(O)[C@H](CC(C)C)N(CCC(C)(C)C)C1=O | > 33 µM | – | 5.1 µM | – | –
CC(C)[C@H]1C(O)=C(C2=NS(=O)(=O)c3c(OCC(N)=O)cccc32)C(=O)N1Cc1ccccc1 | > 33 µM | 88 µM | 0.52 µM | > 1 h | –
CC(C)(C)CCN1C(=O)C(C2=CS(=O)(=O)c3c(CNS(C)(=O)=O)cccc32)=C(O)[C@@H]1C(C)(C)C | > 33 µM | 6.4 µM | 0.24 µM | > 1 h | –
CC[C@@]1(C)C(O)=C(C2=NS(=O)(=O)c3c(CN(C)S(C)(=O)=O)cccc32)C(=O)N1Cc1ccc(F)c(Cl)c1 | > 33 µM | – | 0.41 µM | – | half-life ([4]; microsomes): > 1 h
CN(Cc1cccc2c1S(=O)(=O)N=C2C1=C(O)C(C)(C)N(Cc2ccc(F)c(Cl)c2)C1=O)S(C)(=O)=O | > 33 µM | – | 0.46 µM | > 1 h | –
CC(C)[C@@]1(C)C(O)=C(C2=CS(=O)(=O)c3c(CN(C)S(C)(=O)=O)cccc32)C(=O)N1CCC(C)(C)C | > 33 µM | – | 13 µM | > 1 h | –
CC(C)(C)[C@H]1C(O)=C(C2=NS(=O)(=O)c3c(OCC(N)=O)cccc32)C(=O)N1Cc1ccc(F)c(Cl)c1 | > 33 µM | 7.9 µM | 0.033 µM | > 1 h | –
CC(C)(C)[C@H]1C(O)=C(C2=NS(=O)(=O)c3c(OCc4ncon4)cccc32)C(=O)N1Cc1ccc(F)c(Cl)c1 | > 33 µM | 1.8 µM | 0.18 µM | > 1 h | –
CC(C)(C)[C@H]1C(O)=C(C2=NS(=O)(=O)c3cc(NS(C)(=O)=O)ccc32)C(=O)N1Cc1ccc(F)c(Cl)c1 | > 33 µM | 13 µM | 0.094 µM | > 1 h | –

SMILES | CC50 at 72 h [1] | EC50 [2] | IC50 [3] | half-life ([4]; liver microsomes) | other results
CC(C)[C@H]1C(O)=C(C2=NS(=O)(=O)c3c(OCCC(N)=O)cccc32)C(=O)N1Cc1ccccc1 | > 33 µM | 100 µM | 1.2 µM | – | –
CC(C)[C@H]1C(O)=C(C2=NS(=O)(=O)c3c(OCC#N)cccc32)C(=O)N1Cc1ccccc1 | > 33 µM | 12 µM | 1.6 µM | > 1 h | –
CC(C)(C)[C@H]1C(O)=C(C2=NS(=O)(=O)c3c(CNS(C)(=O)=O)cccc32)C(=O)N1Cc1ccc(F)c(Cl)c1 | > 33 µM | 0.07 µM | < 0.01 µM | > 1 h | Papp A→B [5]: 0.1 ×10⁻⁶ cm/s; concentration at 12 h [6]: 0.5 ng/mL; AUC at 24 h [7]: 38 ng·h/mL; bioavailability [8]: 1%; Papp B→A [9]: 15 ×10⁻⁶ cm/s; efflux ratio [10]: 150
CCOc1cccc2c1S(=O)(=O)N=C2C1=C(O)[C@H](C(C)(C)C)N(CCC(C)(C)C)C1=O | > 33 µM | – | 1.5 µM | > 1 h | –
CN(Cc1cccc2c1S(=O)(=O)N=C2C1=C(O)C2(CC2)N(Cc2ccc(F)c(Cl)c2)C1=O)S(C)(=O)=O | > 33 µM | – | 0.62 µM | > 1 h | –
CC(C)[C@H]1C(O)=C(C2=NS(=O)(=O)c3c(O)cccc32)C(=O)N1Cc1ccccc1 | > 33 µM | 47 µM | 0.47 µM | > 1 h | –
CS(=O)(=O)NCc1cccc2c1S(=O)(=O)N=C2C1=C(O)C2(CC2)N(Cc2ccc(F)c(Cl)c2)C1=O | > 33 µM | > 33 µM | 0.13 µM | – | half-life ([4]; microsomes): > 1 h
CC(C)(C)CCN1C(=O)C(C2=NS(=O)(=O)c3ccccc32)=C(O)[C@@H]1C(C)(C)C | > 33 µM | 4.3 µM | 0.42 µM | 0.167 h | Papp A→B [5]: 9.9 ×10⁻⁶ cm/s; concentration at 12 h [6]: 5 ng/mL; AUC at 24 h [7]: 4680 ng·h/mL; Papp B→A [9]: 19 ×10⁻⁶ cm/s; efflux ratio [10]: 2
CCOc1cccc2c1S(=O)(=O)N=C2C1=C(O)[C@H](C(C)C)N(Cc2ccccc2)C1=O | > 33 µM | 18 µM | 3.6 µM | > 1 h | –
CCOc1cccc2c1S(=O)(=O)N=C2C1=C(O)[C@H](C2CCCCC2)N(CCC(C)(C)C)C1=O | > 33 µM | – | 4 µM | – | –
CN(Cc1cccc2c1S(=O)(=O)C=C2C1=C(O)[C@H](C(C)(C)C)N(CCC(C)(C)C)C1=O)S(C)(=O)=O | > 33 µM | 5.8 µM | 0.92 µM | > 1 h | –
CCOc1cccc2c1S(=O)(=O)N=C2C1=C(O)[C@H](C(C)(C)C)N(CCC(C)C)C1=O | > 33 µM | – | 5.1 µM | – | –
CC(C)(C)[C@H]1C(O)=C(C2=NS(=O)(=O)c3c(OCC#N)cccc32)C(=O)N1Cc1ccc(F)c(Cl)c1 | > 33 µM | 0.7 µM | 0.07 µM | > 1 h | –
CC(C)[C@H]1C(O)=C(C2=NS(=O)(=O)c3c(OCC(=O)C(C)(C)C)cccc32)C(=O)N1Cc1ccccc1 | > 33 µM | > 33 µM | 21 µM | – | –
CCOc1cccc2c1S(=O)(=O)N=C2C1=C(O)C(c2cccs2)N(CCC(C)(C)C)C1=O (racemic) | > 33 µM | – | 2.9 µM | – | –
CC(C)NCC(O)COc1cccc2ccccc12 (configuration not stated) [PROPRANOLOL] | – | – | – | – | Papp [11]: 10 ×10⁻⁶ cm/s
CC(C)(C)CCN1C(=O)C(C2=NS(=O)(=O)c3c(CNS(C)(=O)=O)cccc32)=C(O)[C@@H]1C(C)(C)C | > 33 µM | 0.35 µM | 0.018 µM | – | half-life ([4]; microsomes): > 1 h
CCOc1cccc2c1S(=O)(=O)N=C2C1=C(O)[C@H](C(C)(C)C)N(Cc2cccc(Cl)c2)C1=O | > 33 µM | – | 1.6 µM | – | –
